Measurements as given in patent US20120070392A1, “COMPOSITION FOR INHIBITING ERYTHEMA CAUSED BY ULTRAVIOLET RADIATION CONTAINING A DIPEPTIDE AS ACTIVE INGREDIENT” (priority 2009, published 2012).

System: PGE2 production
Test: Inhibition of UVB-induced PGE2 production in cultured human keratinocytes (PGE2 assay kit, calibrated with MTT absorbance)
Format: cell-based
Details: not given
Protocol: Human keratinocytes were seeded at a density of 1×10^5 cells/well to 6-well plates containing 2 mL of KGM(keratinocyte growth medium, Clonetics, San Diego, Calif., USA) per well and cultured overnight. Then, the medium was replaced with KBM(keratinocyte basal medium) supplemented with 0.1% BSA(bovine serum albumin) and the cells were cultured for an additional 24 hours. Subsequently, the cells were pre-treated for an additional 24 hours with 2 mL of the same medium containing 10 μg/ml of each of the dipeptides listed in Table 1. […] The pre-treated medium was transferred to new 24 well plates and 1 mL of DPBS(Dulbecco's phosphate buffered saline) was added to the cells in each well. During UV irradiation, the transferred medium was stored in a cell incubator. […] At this time, the control was covered with aluminum foil. After the removal of DPBS, the transferred medium was returned to each well. The cells were further cultured for 24 hours, after which 1 mL of the medium was transferred to microcentrifuge tubes. […] The supernatants were then removed and the formazan crystals were solubilized in 1 ml of DMSO(dimethylsulfoxide). One hundred μL of the solution was transferred to each well of 96-well plates and an optical density was determined at 540 nm using an ELISA(enzyme-linked immunosorbent assay) reader. […] The concentration of PGE2 was determined using a PGE2 Assay Kit(KGE004, R&D Systems, Inc., Minneapolis, Minn., USA) according to the manufacturer's instruction. […] After removal of the reaction, the wells were washed five times with 400 μL of wash buffer. To each well was added 200 μL of a substrate solution, followed by incubation for 20 30 min. The reaction was terminated with 50 μL of a stop solution per well before determining absorbance at 450 nm on an ELISA reader. The PGE2 concentration of each sample was calculated from the standard graph and calibrated with the absorbance obtained in the MTT assay to determine their inhibitory activity against PGE2 production.

Row | Compound | % Inhibition against PGE2 Production [%]
1 | arginine-tyrosine [RY] | 67.3
2 | histidine-tyrosine [HY] | 77.9
3 | histidine-lysine [HK] | 43.8
4 | asparagine-serine [NS] | 31.9
5 | aspartic acid-methionine [DM] | 63.1
6 | N=C(N)NCCC[C@H](N)C(=O)O.NCC(=O)O [RG, arginine-glycine] | 82.8
7 | tyrosine-glutamic acid [YE] | 74.2
8 | proline-tryptophan [PW] | 85.5
9 | proline-tyrosine [PY] | 24.8
10 | isoleucine-tyrosine [IY] | 68.6
11 | tyrosine-tyrosine [YY] | 83.5
12 | valine-cysteine [VC] | 43.3
13 | glutamine-tyrosine [QY] | 54.6
14 | serine-methionine [SM] | 75.1
15 | valine-asparagine [VN] | 31.3
16 | isoleucine-methionine [IM] | 57.1
17 | asparagine-valine [NV] | 80.4
18 | proline-aspartic acid [PD] | 84.3
19 | NCC(=O)O.N[C@@H](CC(=O)O)C(=O)O [GD, glycine-aspartic acid] | 23.8
20 | tyrosine-methionine [YM] | 89.6
21 | aspartic acid-proline [DP] | 89.3
22 | proline-arginine | 76.4

Same assay, conditions: 10 μg/ml dipeptide, 24 h pre-treatment, human keratinocytes, UVB 100 mJ/cm^2, medium assayed 24 h after irradiation; 0% or lower expressed as zero; 10% or more regarded as effective

Row | Compound | % Inhibition against PGE2 Production [%]
23 | tyrosine-alanine [YA] | 80.2
24 | phenylalanine-methionine [FM] | 67.5

Same assay, conditions: 10 μg/ml dipeptide, 24 h pre-treatment, human keratinocytes, UVB 100 mJ/cm^2, medium assayed 24 h after irradiation; […]; 10% or more regarded as effective

Row | Compound | % Inhibition against PGE2 Production [%]
25 | threonine-glutamic acid [TE] | 82.5
26 | glutamic acid-serine [ES] | 48.8
27 | phenylalanine-arginine [FR] | 92.9
28 | asparagine-leucine [NL] | 72.6
29 | phenylalanine-leucine [FL] | 29.2
30 | serine-glutamine [SQ] | 58.8
31 | tryptophan-aspartic acid [WD] | 85.9
32 | phenylalanine-lysine [FK] | 73.3
33 | cysteine-serine [CS] | 53.1
34 | asparagine-phenylalanine [NF] | 88.2
35 | tryptophan-serine [WS] | 89.0
36 | alanine-arginine | 95.7
37 | cysteine-tryptophan [CW] | 71.0
38 | phenylalanine-aspartic acid [FD] | 13.7
39 | phenylalanine-asparagine [FN] | 81.4
40 | glutamic acid-valine [EV] | 86.4
41 | serine-isoleucine [SI] | 50.3
42 | tryptophan-asparagine [WN] | 33.1
43 | glutamic acid-alanine [EA] | 55.3
44 | glutamine-threonine [QT] | 25.0
45 | glutamine-serine [QS] | 28.2
46 | lysine-valine [KV] | 71.6
47 | serine-glutamic acid | 44.0
48 | arginine-lysine [RK] | 88.2
49 | threonine-tryptophan [TW] | 54.8
50 | isoleucine-serine | 66.0
51 | tryptophan-phenylalanine [WF] | 81.7
